According to the supplement of paper PMC4932681:
Counter-ions that a name gives are not always drawn.

Tests used:
[1] = system: BT-474 Tam1; experiment: drug sensitivity score (DSS) (DSS (dimensionless)); higher = more sensitive; extreme values may be limits of the assay; settings: 4-OH-tamoxifen in medium 1 µM; 72 h
Method in brief: (§1)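 Breast cancer cell lines and their resistant derivatives were seeded into 384-well plates holding FO2Baq library drugs at five concentrations spanning a 10 000-fold range. Resistant lines were in medium with 1 μM of the selecting drug. Cells were incubated 72 h at 37 °C, and CellTiter-Glo viability was read on a PHERAstar and normalised to vehicle-only and positive controls. Drug sensitivity score, relative IC50 (curve midpoint) and top-dose inhibition came from logistic dose–response fits (Breeze pipeline).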

[2] = system: BT-474 Tam2; experiment: as above; settings: 4-OH-tamoxifen in medium 1 µM; 72 h
Method in brief: as §1

[3] = system: BT-474; experiment: as above; settings: 72 h
Method in brief: as §1

[4] = system: MCF-7 Tam1; experiment: as above; settings: 4-OH-tamoxifen in medium 1 µM; 72 h
Method in brief: as §1

[5] = system: MCF-7; experiment: as above; settings: 72 h
Method in brief: as §1

[6] = system: T-47D Tam1; experiment: as above; settings: 4-OH-tamoxifen in medium 1 µM; 72 h
Method in brief: as §1

[7] = system: T-47D Tam2; experiment: as above; settings: 4-OH-tamoxifen in medium 1 µM; 72 h
Method in brief: as §1

[8] = system: T-47D; experiment: as above; settings: 72 h
Method in brief: as §1

[9] = system: ZR-75-1 Tam1; experiment: as above; settings: 4-OH-tamoxifen in medium 1 µM; 72 h
Method in brief: as §1

[10] = system: ZR-75-1 Tam2; experiment: as above; settings: 4-OH-tamoxifen in medium 1 µM; 72 h
Method in brief: as §1

[11] = system: ZR-75-1; experiment: as above; settings: 72 h
Method in brief: as §1

[12] = system: BT-474; experiment: relative IC50 (midpoint of fitted logistic curve, plateau may be below 50% inhibition; CellTiter-Glo viability); higher = less potent; settings: 72 h
Method in brief: as §1

[13] = system: MCF-7 Tam1; experiment: as above; settings: 4-OH-tamoxifen in medium 1 µM; 72 h
Method in brief: as §1

[14] = system: MCF-7; experiment: as above; settings: 72 h
Method in brief: as §1

[15] = system: T-47D Tam1; experiment: as above; settings: 4-OH-tamoxifen in medium 1 µM; 72 h
Method in brief: as §1

[16] = system: T-47D Tam2; experiment: as above; settings: 4-OH-tamoxifen in medium 1 µM; 72 h
Method in brief: as §1

[17] = system: T-47D; experiment: as above; settings: 72 h
Method in brief: as §1

[18] = system: ZR-75-1 Tam1; experiment: as above; settings: 4-OH-tamoxifen in medium 1 µM; 72 h
Method in brief: as §1

[19] = system: ZR-75-1 Tam2; experiment: as above; settings: 4-OH-tamoxifen in medium 1 µM; 72 h
Method in brief: as §1

[20] = system: ZR-75-1; experiment: as above; settings: 72 h
Method in brief: as §1

[21] = system: BT-474 Tam1; experiment: as above; settings: 4-OH-tamoxifen in medium 1 µM; 72 h
Method in brief: as §1

| Compound | drug sensitivity score [1] | drug sensitivity score [2] | drug sensitivity score ([3]; 4-OH-tamoxifen in medium 0 µM) | drug sensitivity score ([3]; 4-OH-tamoxifen in medium 1 µM) | drug sensitivity score [4] | drug sensitivity score ([5]; 4-OH-tamoxifen in medium 0 µM) | drug sensitivity score ([5]; 4-OH-tamoxifen in medium 1 µM) | drug sensitivity score [6] | drug sensitivity score [7] | drug sensitivity score ([8]; 4-OH-tamoxifen in medium 0 µM) | drug sensitivity score ([8]; 4-OH-tamoxifen in medium 1 µM) | drug sensitivity score [9] | drug sensitivity score [10] | drug sensitivity score ([11]; 4-OH-tamoxifen in medium 0 µM) | drug sensitivity score ([11]; 4-OH-tamoxifen in medium 1 µM) | relative IC50 ([12]; 4-OH-tamoxifen in medium 0 µM) [nM] | relative IC50 ([12]; 4-OH-tamoxifen in medium 1 µM) [nM] | relative IC50 [13] [nM] | relative IC50 ([14]; 4-OH-tamoxifen in medium 0 µM) [nM] | relative IC50 ([14]; 4-OH-tamoxifen in medium 1 µM) [nM] | relative IC50 [15] [nM] | relative IC50 [16] [nM] | relative IC50 ([17]; 4-OH-tamoxifen in medium 0 µM) [nM] | relative IC50 ([17]; 4-OH-tamoxifen in medium 1 µM) [nM] | relative IC50 [18] [nM] | relative IC50 [19] [nM] | relative IC50 ([20]; 4-OH-tamoxifen in medium 0 µM) [nM] | relative IC50 ([20]; 4-OH-tamoxifen in medium 1 µM) [nM] | relative IC50 [21] [nM] |
| --- | --- | --- | --- | --- | --- | --- | --- | --- | --- | --- | --- | --- | --- | --- | --- | --- | --- | --- | --- | --- | --- | --- | --- | --- | --- | --- | --- | --- | --- |
| CCN(CC)CCCC(C)Nc1ccnc2cc(Cl)ccc12 (stereo not given) [Chloroquine] | 0.266 | 0.999 | 0 | 0 | 0 | 0 | 0 | 0 | 0 | 0 | 0 | 0 | 0 | 0 | 0 | > 990000 | > 990000 | > 990000 | > 990000 | > 990000 | > 990000 | > 990000 | > 990000 | > 990000 | > 990000 | > 990000 | > 990000 | > 990000 |  |
| O=C(/C=C/c1cccnc1)NCCCCC1CCN(C(=O)c2ccccc2)CC1 [Daporinad (FK-866 HCl)] | 5.63 | 1.29 | 0 | 8.73 | 0 | 15.8 | 10.4 | 27.2 | 18.9 | 24.1 | 20.7 | 0 | 0 | 0 | 0 |  | 74.3 | > 1000 | 19 | 54.1 | 3.87 | 14.7 | 7.21 | 13.2 | > 1000 | > 1000 | > 1000 | > 1000 | 94.3 |
| COc1cccc2c1C(=O)c1c(O)c3c(c(O)c1C2=O)C[C@@](O)(C(=O)CO)C[C@@H]3O[C@H]1C[C@H](N)[C@H](O)[C@H](C)O1 [Doxorubicin] | 2.96 | 0.115 | 3 | 3.73 | 2.46 | 5.29 | 3.47 | 6.83 | 4.23 | 6.88 | 3.36 | 4.65 | 7.21 | 4.96 | 6.3 | 374 | 424 | 387 | 247 | 331 | 171 | 300 | 154 | 396 | 286 | 144 | 199 | 214 | 399 |
